Where a name gives a salt, the structure may show the parent alone.
Key:
Streptococcus pneumoniae = experiment: Broth microdilution MIC against Streptococcus pneumoniae (Taiwan isolates); format: cell-based; settings: 0.008 to 8 μg/ml
Experimental: (§1) The Staphylococcus aureus and Streptococcus pneumoniae isolates were obtained by 10 medical centers in all regions of Taiwan. MICs were determined using the broth microdilution method.

[1] = tested on: Methicillin-Resistant Staphylococcus aureus; experiment: Broth microdilution MIC against methicillin-resistant Staphylococcus aureus (Taiwan isolates); format: cell-based; settings: 0.008 to 8 μg/ml
Experimental: as §1

[2] = tested on: community-acquired pneumonia; experiment: Randomized, double-blind clinical trials in community-acquired pneumonia; format: in vivo, human; settings: for cure rate / subjects cured: after 7 days; for cure rate: adult patients
Experimental: Randomized, double-blind clinical trials were conducted at 17 sites in Taiwan and South Africa to assess the effectiveness of Compound 1 in treating adult patients with community-acquired pneumonia.
The trials included a total of 265 subjects having community-acquired pneumonia. The average age of the subjects was 43.5 years old and the average body weight was 66.17 kg. About 50% of the subjects were male, and about 62% of the subjects were Black or African American, about 21% White, and about 15% Asian.
Among the 265 subjects, 86 were treated with 3 Compound 1-containing capsules (750 mg of the free base compound, i.e., (3S,5S)-7-[3-amino-5-methyl-piperidinyl]-1-cyclopropyl-1,4-dihydro-8-methoxy-4-oxo-3-quinolinecarboxylic acid) per day, 89 with 2 Compound 1-containing capsules (500 mg of the free base compound) per day, and 90 with 2 levofloxacin capsules (500 mg of levofloxacin) per day for 7 consecutive days. In each group, the drug capsules were orally taken by the subjects in the morning with a full glass of water (240 mL). Within 2 hours after taking the drugs, the subjects were not allowed to eat, but water intake (no more than 240 mL) was permitted. Overall, 10.6% of randomized subjects withdrew from the treatments.

[3] = Plasma protein binding by ultrafiltration; format: in vitro ADME; settings: human plasma
Experimental: Protein binding was also measured as follows: Ultrafiltrate (UF) samples were obtained by centrifuging the above-mentioned Compound 1-contaning heparinized human plasma in molecular weight cutoff ultrafiltration devices (30,000 Da) at ˜3000 rpm (30 min, ˜37° C.). The UF samples (0.025 mL) were mixed with an internal standard solution—0.050 mL of ˜800 ng/mL O^13CD3-Compound 1 (in which the OCH3 group was replaced with the O^13CD3 group), diluted by 20 folds, and analyzed by reverse-phase HPLC on a 3.5 micron C-18 column. Quantitation was obtained by the multiple reaction monitoring method through positive ion Turbo-Ion Spray ionization. Ultrafiltrate standards were used to quantify the unbound drug in plasma quality control samples and unknown specimens. Non-specific protein binding (NSB) was measured (NSB=0.0415) and used as a correction factor to determine the final % protein bindings. The nominal range of quantitation for the analyte was 50 to 10,000 ng/mL. 0.400 mL aliquot of human plasma was used in the assay. Sample concentrations were determined by back-calculation using a weighted linear (1/x^2) regression of a calibration curve generated from spiked UF standards. Over the linear range, the inter-batch % CV for Compound 1 was 4.9% to 11.8%.

[4] = tested on: Methicillin-Resistant Staphylococcus aureus; experiment: Broth microdilution against MRSA isolates (CAN-ICU Study); format: cell-based
Excerpt: MRSA isolates (n=193) were obtained as part of the Canadian National Intensive Care Unit (CAN-ICU) Study. 19 medical centers from all regions of Canada with active ICUs participated in the CAN-ICU study included. They were requested to only obtain “clinically significant” specimens from patients with a presumed infectious disease. Surveillance swabs, eye, ear, nose and throat swabs were excluded. Anaerobic organisms and fungal organisms were also excluded.
From September 2005-June 2006 (inclusive), each center collected a maximum of 300 consecutive pathogens isolated from blood, urine, tissue/wound, and respiratory specimens (one pathogen per cultured site per patient) of ICU patients. These isolates were shipped to the reference laboratory (Health Sciences Centre, Winnipeg, Canada) on Amies charcoal swabs, subcultured in appropriate media, and stocked in skim milk at −80° C.
The isolates' methicillin resistance was confirmed using the disk diffusion method described by the Clinical and Laboratory Standards Institute. […] Their PFGE fingerprints thus obtained were analyzed with BioNumerics v3.5 (Applied Maths St. Marten-Latem, Belgium) using a position tolerance of 1.0 and an optimization of 1.0. Strain relatedness was determined as previously described (Tenover et al., 1995). […]

[5] = Pharmacokinetic analysis of plasma (Cmax, AUC0-24h) at steady state; format: in vivo, human; settings: for Free AUC0-24: corrected for plasma protein binding; for Cmax / AUC(0-t): human, po, steady state, plasma; for Cmax: in vivo
[6] = tested on: multidrug-resistant methicillin-resistant Staphylococcus aureus; experiment: Agar dilution MIC against multidrug-resistant MRSA (Taiwan isolates); format: cell-based
Experimental: Compound 1 was tested for its inhibitory effect against multidrug-resistant methicillin-resistant Staphylococcus aureus obtained by 10 medical centers in all regions of Taiwan. MICs were determined using the agar dilution methods recommended by the Clinical and Laboratory Standards Institute (CLSI-M100-S18).

[7] = 500 mg per day orally, 89 treated (Compound 1), 90 treated (levofloxacin)

COc1c(N2C[C@H](C)C[C@H](N)C2)ccc2c(=O)c(C(=O)O)cn(C3CC3)c12 [Compound 1′, malate salt hemihydrate of (3S,5R)-7-[3-amino-5-methyl-piperidinyl]-1-cyclopropyl-1,4-dihydro-8-methoxy-4-oxo-3-quinolinecarboxylic acid]
inhibitory effect against Streptococcus pneumoniae (Streptococcus pneumoniae): effective in inhibiting | inhibitory effect against methicillin-resistant Staphylococcus aureus [1]: effective in inhibiting

C[C@H]1COc2c(N3CCN(C)CC3)c(F)cc3c(=O)c(C(=O)O)cn1c23 [levofloxacin, reference compound]
cure rate ([2]; 500 mg per day orally): 80.0% | subjects cured [2, 7]: 72 subjects

COc1c(N2C[C@@H](C)C[C@H](N)C2)ccc2c(=O)c(C(=O)O)cn(C3CC3)c12 [Compound 1, malate salt hemihydrate of (3S,5S)-7-[3-amino-5-methyl-piperidinyl]-1-cyclopropyl-1,4-dihydro-8-methoxy-4-oxo-3-quinolinecarboxylic acid]
fraction unbound at 30 min ([3]; 500 mg per day, 500 mg q24 p.o.): 0.84 | Protein Binding ([3]; 750 mg q24 p.o.): 16% | Protein Binding ([3]; 1000 mg q24 p.o.): 16% | activity against community-associated-MRSA versus healthcare-associated-MRSA strains [4]: more active against community-associated-MRSA strains than healthcare-associated-MRSA strains | inhibitory activity against the MRSA isolates ([4]; 193 MRSA isolates): effectively inhibited MRSA | Free AUC0-24 ([5]; 500 mg q24 p.o.): 32400 ng·h/mL | Free AUC0-24 ([5]; 750 mg q24 p.o.): 49100 ng·h/mL | Free AUC0-24 ([5]; 1000 mg q24 p.o.): 62900 ng·h/mL | Cmax ([5]; 500 mg q24 p.o.): 5560 ng/mL | Cmax ([5]; 750 mg q24 p.o.): 6820 ng/mL | Cmax ([5]; 1000 mg q24 p.o.): 8200 ng/mL | AUC(0-t) ([5]; 500 mg q24 p.o.): 38600 ng·h/mL | AUC(0-t) ([5]; 750 mg q24 p.o.): 58400 ng·h/mL | AUC(0-t) ([5]; 1000 mg q24 p.o.): 74800 ng·h/mL | inhibitory effect against MRSA isolates that are Ciprofloxacin-resistant, Vancomycin-intermediate-resistant, and Daptomycin-nonsusceptible [6]: effective in inhibiting | cure rate ([2]; 500 mg per day orally): 75.3% | subjects cured [2, 7]: 67 subjects | cure rate ([2]; 750 mg per day orally): 82.6% | subjects cured ([2]; 750 mg per day orally, 86 treated): 71 subjects | effectiveness in treating community-acquired pneumonia ([2]; oral capsules, 7 consecutive days): effective in treating community-acquired pneumonia

— patent US20100041697A1, “PNEUMONIA TREATMENT” (TaiGen Biotechnology Co., Ltd., priority 2008, published 2010)
